Data from US20220339143A1, “TAK-925 FOR USE IN TREATING NARCOLEPSY” (Takeda Pharmaceutical Company Limited, priority 2019, published 2022).
Read-outs that look alike come from different tables or passages of the source.

Experiment: Single dose PK in healthy subjects (Cohorts 1, 2, S1 and S2), plasma
Format: in vivo, human
Details: human, plasma, intravenous
Experimental: This study investigates (i) the safety and tolerability of Compound A (methyl (2R,3S)-3-((methylsulfonyl)amino)-2-(((cis-4-phenylcyclohexyl)oxy)methyl)piperidine-1-carboxylate) when a single dose given as a 9 hour continuous IV infusion is administered to healthy adults, healthy elderly subjects and patients with narcolepsy type 1 (NT1); (ii) the pharmacokinetics of Compound A when a single dose given as a 9 hour continuous IV infusion is administered to healthy adults, healthy elderly subjects and patients with narcolepsy type 1; and (iii) the pharmacodynamics (PD) effects of Compound A, primarily by evaluation of the sleep latency on MWT when a single dose given as a 9 hour continuous IV infusion is administered to patients with narcolepsy type 1.
Pharmacokinetics: Concentrations of Compound A in plasma, and CSF, and pharmacokinetics parameters.
On average, the time to reach the plateau appeared to be approximately 3 to 4 hours after the start of infusion. […] After switching off the IV infusion, Compound A plasma concentrations declined rapidly and in a biphasic manner with a mean terminal disposition phase t1/2z ranging approximately from 3.4 to 5.1 hours across all doses. […] Table 5 provides a summary of plasma concentrations of Compound A after a single IV infusion in healthy subjects. Table 6 provides a summary of pharmacokinetic parameters of Compound A after a single IV infusion in healthy subjects.

[1] = 28 mg, read-out: Plasma concentration, Minimum
[2] = 28 mg, read-out: Plasma concentration, Q1
[3] = 28 mg, read-out: Plasma concentration, Q3
[4] = 28 mg, read-out: Plasma concentration, Maximum
[5] = 28 mg, read-out: Plasma concentration, Mean
[6] = 28 mg, read-out: Plasma concentration, Median
[7] = 56 mg, read-out: Plasma concentration, Maximum
[8] = 56 mg, read-out: Plasma concentration, Mean
[9] = 56 mg, read-out: Plasma concentration, Median
[10] = 56 mg, read-out: Plasma concentration, Minimum
[11] = 56 mg, read-out: Plasma concentration, Q1
[12] = 56 mg, read-out: Plasma concentration, Q3
[13] = 112 mg, read-out: Plasma concentration, Maximum
[14] = 112 mg, read-out: Plasma concentration, Mean
[15] = 112 mg, read-out: Plasma concentration, Median
[16] = 112 mg, read-out: Plasma concentration, Minimum
[17] = 112 mg, read-out: Plasma concentration, Q1
[18] = 112 mg, read-out: Plasma concentration, Q3

COC(=O)N1CCC[C@H](NS(C)(=O)=O)[C@@H]1CO[C@H]1CC[C@@H](c2ccccc2)CC1 [Compound A, methyl (2R,3S)-3-((methylsulfonyl)amino)-2-(((cis-4-phenylcyclohexyl)oxy)methyl)piperidine-1-carboxylate] gave a concentration at 2 hr [1] of 33.7 ng/mL, a concentration at 2 hr [2] of 45.5 ng/mL and a concentration at 2 h [3] of 57.8 ng/mL. It also gave a concentration at 3 h [4] of 65.2 ng/mL, a concentration at 3 hr [5] of 55 ng/mL and a concentration at 3 h [6] of 59.3 ng/mL. The concentration at 3 hr [1] was 35.6 ng/mL, the concentration at 3 hr [2] was 51.3 ng/mL and the concentration at 3 h [3] was 63.7 ng/mL. It also gave a concentration at 4 hr [4] of 63.1 ng/mL, a concentration at 4 h [5] of 55 ng/mL and a concentration at 4 hr [6] of 54.5 ng/mL. It also gave a concentration at 4 hr [1] of 44.4 ng/mL, a concentration at 4 hr [2] of 54.2 ng/mL and a concentration at 4 hr [3] of 58.8 ng/mL. For the same molecule, the concentration at 6 hr [4] was 51.7 ng/mL, the concentration at 6 hr [5] was 46.8 ng/mL and the concentration at 6 hr [6] was 48 ng/mL. For the same molecule, the concentration at 6 hr [1] was 40.2 ng/mL, the concentration at 6 hr [2] was 45.4 ng/mL and the concentration at 6 hr [3] was 48.8 ng/mL. For the same molecule, the concentration at 8 hr [4] was 58.8 ng/mL, the concentration at 8 hr [5] was 48.7 ng/mL and the concentration at 8 hr [6] was 51.7 ng/mL. For the same molecule, the concentration at 8 hr [1] was 37.1 ng/mL, the concentration at 8 hr [2] was 43.3 ng/mL and the concentration at 8 hr [3] was 52.5 ng/mL. It also gave a concentration at 9 hr [4] of 58.3 ng/mL, a concentration at 9 hr [5] of 52.5 ng/mL and a concentration at 9 hr [6] of 55.3 ng/mL. It also gave a concentration at 9 hr [1] of 40.6 ng/mL, a concentration at 9 hr [2] of 51 ng/mL and a concentration at 9 hr [3] of 57.4 ng/mL. For the same molecule, the concentration at 0.5 h [7] was 80.3 ng/mL, the concentration at 0.5 h [8] was 71.2 ng/mL and the concentration at 0.5 h [9] was 70.7 ng/mL. For the same molecule, the concentration at 0.5 h [10] was 64.4 ng/mL, the concentration at 0.5 h [11] was 65 ng/mL and the concentration at 0.5 h [12] was 75.9 ng/mL. It also gave a concentration at 1 h [7] of 91.5 ng/mL, a concentration at 1 h [8] of 81.2 ng/mL and a concentration at 1 h [9] of 79 ng/mL. For the same molecule, the concentration at 1 h [10] was 74.8 ng/mL, the concentration at 1 h [11] was 76.2 ng/mL and the concentration at 1 h [12] was 86.3 ng/mL. For the same molecule, the concentration at 1.5 h [7] was 116 ng/mL, the concentration at 1.5 h [8] was 92.8 ng/mL and the concentration at 1.5 h [9] was 90.2 ng/mL. For the same molecule, the concentration at 1.5 h [10] was 75.5 ng/mL, the concentration at 1.5 h [11] was 88.8 ng/mL and the concentration at 1.5 h [12] was 96.1 ng/mL. The concentration at 2 h [7] was 114 ng/mL, the concentration at 2 h [8] was 99.5 ng/mL and the concentration at 2 h [9] was 99 ng/mL. It also gave a concentration at 2 h [10] of 86.5 ng/mL, a concentration at 2 h [11] of 88.8 ng/mL and a concentration at 2 h [12] of 110 ng/mL. For the same molecule, the concentration at 3 h [7] was 133 ng/mL, the concentration at 3 h [8] was 114 ng/mL and the concentration at 3 h [9] was 112 ng/mL. The concentration at 3 h [10] was 98.3 ng/mL, the concentration at 3 h [11] was 98.6 ng/mL and the concentration at 3 h [12] was 131 ng/mL. It also gave a concentration at 4 h [7] of 144 ng/mL, a concentration at 4 hr [8] of 118 ng/mL and a concentration at 4 h [9] of 113 ng/mL. It also gave a concentration at 4 hr [10] of 107 ng/mL, a concentration at 4 hr [11] of 109 ng/mL and a concentration at 4 h [12] of 120 ng/mL. It also gave a concentration at 6 h [7] of 119 ng/mL, a concentration at 6 hr [8] of 91.8 ng/mL and a concentration at 6 h [9] of 90.8 ng/mL. For the same molecule, the concentration at 6 hr [10] was 73.5 ng/mL, the concentration at 6 h [11] was 73.8 ng/mL and the concentration at 6 h [12] was 103 ng/mL. The concentration at 8 h [7] was 133 ng/mL, the concentration at 8 hr [8] was 102 ng/mL and the concentration at 8 h [9] was 99.7 ng/mL. It also gave a concentration at 8 hr [10] of 84.9 ng/mL, a concentration at 8 h [11] of 87.2 ng/mL and a concentration at 8 h [12] of 108 ng/mL. The concentration at 9 h [7] was 138 ng/mL, the concentration at 9 hr [8] was 115 ng/mL and the concentration at 9 h [9] was 112 ng/mL. For the same molecule, the concentration at 9 hr [10] was 102 ng/mL, the concentration at 9 h [11] was 104 ng/mL and the concentration at 9 h [12] was 122 ng/mL. The concentration at 0.5 h [13] was 174 ng/mL, the concentration at 0.5 h [14] was 132 ng/mL and the concentration at 0.5 h [15] was 122 ng/mL. The concentration at 0.5 h [16] was 108 ng/mL, the concentration at 0.5 h [17] was 119 ng/mL and the concentration at 0.5 h [18] was 149 ng/mL. The concentration at 1 h [13] was 172 ng/mL, the concentration at 1 h [14] was 154 ng/mL and the concentration at 1 h [15] was 162 ng/mL. It also gave a concentration at 1 h [16] of 126 ng/mL, a concentration at 1 h [17] of 131 ng/mL and a concentration at 1 h [18] of 169 ng/mL. The concentration at 1.5 h [13] was 255 ng/mL and the concentration at 1.5 h [14] was 194 ng/mL.
